Usually melting point stands for the temperature, or range, at which the solid turns liquid. `Cc1ccc(C(=O)CC#N)c(C)c1`: the melting point fell in the range of 78 to 80 °C.
In the case of `O=C1CCc2c(F)cc(Br)cc21` it was 114 to 116 °C.
Consider `COCCOc1c(Cl)cc(N)cc1Cl`, for which the melting point fell in the range of 58 to 60 °C.
In the case of `Sc1nnc(-c2ccccc2)c2ccccc12` it was 178 to 180 °C.
For `COc1ccc(-n2ccnc2S)cc1`, the melting point was 175 to 177 °C.
In the case of `CCC1(C)NC(=O)N(N)C1=O` (configuration not stated) it was 153 to 155 °C.
Consider `COc1cccc(Cn2ccc3ccc(N)cc32)c1`, for which the melting point is 59 to 61 °C.
In the case of `CCOC(=O)c1ccc(NCC2CC2)cc1` it was 69 to 71 °C.
Under `CC(C)c1cccc(-c2ccc(C(=O)O)o2)c1` stands 84 to 86 °C; under `O=C1CCNc2ccc(C(=O)O)cc2N1`, 281 to 283 °C.
In the case of `Cc1c(CCC(=O)O)cnn1C` it was 139 to 141 °C; in that of `CCOC(=O)c1c(C)oc2cc3c(C(=O)OCC)c(C)oc3cc12`, 187 to 189 °C; in that of `COc1ccccc1NS(=O)(=O)c1ccc2oc(N)nc2c1`, 210 to 212 °C.
For `O=C(CCl)Nc1cc(C(F)(F)F)ccc1N1CCOCC1`, the melting point was 155 to 157 °C.
In the case of `Cc1cccc(OCCCC(=O)O)c1` it was 55 to 57 °C; in that of `O=C(O)C1C2CCCC21` (configuration not stated), 34 to 36 °C; in that of `O=C(O)c1ccc(NS(=O)(=O)c2ccc(Br)cc2)cc1`, 267 to 269 °C.
`OCc1nnc(S)n1C1CC1` yielded a melting point of 154 to 156 °C.
`CCOc1cc(C=CC(=O)O)ccc1OCCOc1ccc(F)cc1` had a melting point of 105 to 107 °C.
Under `Cc1ccc(-n2c(=O)c(N)c(C)n2C)cc1` stands 261 to 263 °C; under `CCCS(=O)(=O)Nc1ccc(C(=O)O)cc1`, 187 to 189 °C; under `O=[N+]([O-])c1cc(S(=O)(=O)N2CCCC2)ccc1Cl`, 96 to 100 °C.
Under `Nc1ccc(CN2CCCC2=O)cc1` stands 124 to 126 °C.
Under `O=C(O)C1(c2ccccc2)CCOCC1` stands 128 to 130 °C.
For the compound `CCc1ccc(-c2cnnc(N)n2)cc1`, the melting point fell in the range of 248 to 250 °C.
Under `COc1ccc(CC(=O)O)cc1S(=O)(=O)Cl` stands 166 to 168 °C.
As for `CC(=O)N(CCC(N)=S)C(C)C`, the melting point was 104 to 106 °C.
With `Nc1nc2ccc(C(=O)O)cc2o1`, the melting point lay in the range of 337 to 339 °C.
As for `Cn1ccnc1SCC(=O)Nc1cc(C(=O)O)ccc1Cl`, the melting point lay within 223 to 225 °C.
Under `Ic1nnc[nH]1` stands 196 to 198 °C; under `Clc1ccc(-c2nnc(CNC3CC3)o2)cc1`, 104 to 106 °C.
Under `Cc1oncc1C(=O)Nc1ccc(CC(=O)O)cc1` stands 208 to 210 °C; under `O=S(=O)(c1cccc(CO)c1)N1CCOCC1`, 96 to 98 °C.
Under `CC(CCc1ccccc1)NS(=O)(=O)c1ccc(Cl)c(C(=O)O)c1` (configuration not stated) stands 94 to 96 °C; under `Cc1cnc(-c2cccc(N)c2)o1`, 107 to 109 °C.
`CC(=O)Nc1ccc(S(=O)(=O)NCCC(=O)O)cc1` registered a melting point of 160 to 162 °C.
Under `COc1ccccc1CC(C)(C)C(=O)O` stands 44 to 46 °C.
`Cc1ccc(-n2nc(C)cc2N)nn1`: the melting point was in the range of 119 to 121 °C.
`CC(NC(=O)CCn1cncn1)C(=O)O` (configuration not stated) showed a melting point of 254 to 256 °C.
Under `ClCc1ncn(-c2ccccc2)n1` stands 83 to 85 °C; under `O=C(O)CC1CCC(c2ccccc2)CC1` (configuration not stated), 83 to 85 °C.
In the case of `CC(CC(=O)O)S(=O)(=O)c1ccc(F)cc1` (configuration not stated) it was 126 to 128 °C.
Under `N#Cc1cc(N)ccc1Cl` stands 127 to 129 °C; under `CS(=O)(=O)CBr`, 34 to 36 °C; under `Nc1nonc1-c1cccc(Cl)c1`, 133 to 135 °C.
In turn, `COc1ccc(C(=O)O)cc1-c1ccn(C)n1` yielded a melting point of 179 to 181 °C.
Take `CCNS(=O)(=O)c1ccc(I)cc1`: the melting point is 112 to 114 °C.
